The subject of test [1] is HCV genotype 1a L31V variant with leucine 31 changed to valine in the NS5A protein. Briefly: microbe, parasite or virus in culture. Format: cell-based. The settings on record: genotype 1a L31V replicon; test compound titrated with compound N47 fixed at 200 nM versus singly.
The subject of test [2] is HCV genotype 1a Y93H variant with tyrosine 93 changed to histidine in the NS5A protein. The test can be described thus: microbe, parasite or virus in culture. Format: cell-based. The note with it: genotype 1a Y93H replicon; test compound titrated with compound N47 fixed at 200 nM versus singly. Here is the method: Combinations can be examined for synergistic activity using a variety of putative NS5A-targeting compounds and a variety of test compounds. […] The test compound can be chosen from compounds exemplified below, which were prepared by methods known in the art, or from others disclosed in the literature.
Similarly, BMS-790052 can be tested singly and in combination with a fixed amount of compound N47 in the HCV replicon cell based assay consisting of the genotype 1a Y93H variant with tyrosine 93 changed to histidine in the NS5A protein.

A value given as a limit tells only on which side of the number the result lay.

In the case of `COC(=O)N[C@H](C(=O)N1CCC[C@H]1c1ncc(-c2ccc(-c3ccc4cc(-c5cnc([C@@H]6CCCN6C(=O)[C@@H](NC(=O)OC)C(C)C)[nH]5)ccc4c3)cc2)[nH]1)C(C)C`, the “Fold-Synergistic G-1a (L31V)” value in test [1] was <10 fold. For the same compound, in test [2], the “Fold-Synergistic G-1a (Y93H)” value is on record as >10 fold.

Turning to `C[C@H](NC(=O)[C@@H](O)c1ccccc1)C(=O)Nc1ccc(-c2cnc(-c3ccc(NC(=O)[C@H](C)NC(=O)[C@@H](O)c4ccccc4)cc3)o2)cc1`, the “Fold-Synergistic G-1a (L31V)” value in test [1] is recorded as <10 fold. In addition, in test [2], the “Fold-Synergistic G-1a (Y93H)” value is <10 fold.

Regarding `COC(=O)N[C@H](C(=O)N1CCOC[C@H]1c1nc(-c2ccc(-c3ccc4cc(-c5c[nH]c([C@@H]6COCCN6C(=O)[C@@H](NC(=O)OC)C(C)C)n5)ccc4c3)cc2)c[nH]1)C(C)C`, the “Fold-Synergistic G-1a (L31V)” value in test [1] is >10 fold. For the same compound, in test [2], the “Fold-Synergistic G-1a (Y93H)” value is on record as >10 fold.

`CN(C)[C@@H](C(=O)N1CCC[C@H]1C(=O)Nc1ccc(C#Cc2ccc(NC(=O)[C@@H]3CCCN3C(=O)[C@@H](c3ccccc3)N(C)C)cc2)cc1)c1ccccc1`: in test [1], the “Fold-Synergistic G-1a (L31V)” value is <10 fold. For the same compound, in test [2], the “Fold-Synergistic G-1a (Y93H)” value is <10 fold.

For `COC(=O)N[C@H](C(=O)N1[C@@H]2C[C@@H]2C[C@H]1c1ncc(-c2ccc(C#Cc3ccc(-c4cnc([C@@H]5C[C@H]6C[C@H]6N5C(=O)[C@@H](NC(=O)OC)C(C)C)[nH]4)cc3C)c(C)c2)[nH]1)C(C)C`, the “Fold-Synergistic G-1a (L31V)” value in test [1] is <10 fold. Besides, the “Fold-Synergistic G-1a (Y93H)” value in test [2] is <10 fold.

Turning to `COC(=O)N[C@H](C(=O)N1CCC[C@H]1c1ncc(C#Cc2ccc(-c3ccc4nc([C@@H]5CCCN5C(=O)[C@@H](NC(=O)OC)C(C)C)[nH]c4c3)cc2)[nH]1)C(C)C`, in test [1], the “Fold-Synergistic G-1a (L31V)” value is listed as >100 fold. The “Fold-Synergistic G-1a (Y93H)” value in test [2] is listed as >100 fold.

In the case of `O=C(Nc1ccc(/C=C/c2ccc(NC(=O)[C@@H]3CCCCN3C(=O)OCc3ccccc3)cc2)cc1)[C@@H]1CCCCN1C(=O)OCc1ccccc1`, the “Fold-Synergistic G-1a (L31V)” value in test [1] is reported as <10 fold. The “Fold-Synergistic G-1a (Y93H)” value in test [2] is <10 fold.

As for `COC(=O)N[C@H](C(=O)N1C[C@H](C)CC1c1nc(-c2ccc(-c3ccc(-c4cnc([C@@H]5C[C@@H](C)CN5C(=O)[C@@H](NC(=O)OC)C(C)C)[nH]4)cc3)cc2)c[nH]1)C(C)C` (some centres unmarked), the “Fold-Synergistic G-1a (L31V)” value in test [1] is listed as >100 fold. The “Fold-Synergistic G-1a (Y93H)” value in test [2] is reported as >100 fold.

Regarding `O=C1[C@@H]2CCCN2C(=O)C(c2ccccc2)N1c1ccc(/C=C/c2ccc(N3C(=O)[C@@H]4CCCN4C(=O)C3c3ccccc3)cc2)cc1` (some centres unmarked), the “Fold-Synergistic G-1a (L31V)” value in test [1] was <10 fold. In addition, in test [2], the “Fold-Synergistic G-1a (Y93H)” value was <10 fold.

In the case of `CC[C@H]1CC[C@@H](c2ncc(-c3ccc(-c4ccc(-c5cnc([C@@H]6CC[C@H](CC)N6C(=O)[C@@H](NC(=O)OC)C(C)C)[nH]5)cc4)cc3)[nH]2)N1C(=O)[C@@H](NC(=O)OC)C(C)C`, the “Fold-Synergistic G-1a (L31V)” value in test [1] is >100 fold. In addition, the “Fold-Synergistic G-1a (Y93H)” value in test [2] is reported as >100 fold.

As to `COC(=O)N[C@@H](C(=O)N1CCC[C@H]1c1nc(-c2ccc(Oc3cccc(-c4cnc([C@@H]5CCCN5C(=O)[C@H](NC(=O)OC)c5ccccc5)[nH]4)c3)cc2)c[nH]1)c1ccccc1`, the “Fold-Synergistic G-1a (L31V)” value in test [1] is <10 fold. Besides, in test [2], the “Fold-Synergistic G-1a (Y93H)” value is reported as <10 fold.

With `COC(=O)N[C@H](C(=O)N1CCC[C@H]1c1ncc(-c2ccc(-c3ccc4cc(-c5cnc([C@@H]6CCCN6C(=O)[C@@H](NC(=O)OC)C6CCOCC6)[nH]5)ccc4c3)cc2)[nH]1)C1CCOCC1`, the “Fold-Synergistic G-1a (L31V)” value in test [1] was <10 fold. Moreover, in test [2], the “Fold-Synergistic G-1a (Y93H)” value is >10 fold.

In the case of `COC(=O)N[C@H](C(=O)N1CCC[C@H]1c1ncc(-c2ccc(-c3ccc4c(c3)CCc3nc([C@@H]5CCCN5C(=O)[C@@H](NC(=O)OC)C(C)C)[nH]c3-4)cc2)[nH]1)C(C)C`, the “Fold-Synergistic G-1a (L31V)” value in test [1] is listed as >100 fold. For the same compound, the “Fold-Synergistic G-1a (Y93H)” value in test [2] was >100 fold.

Source of the values: patent publication US20160158200A1, “Combinations of Hepatitis C Virus Inhibitors” (priority 2013, published 2016).
